According to PMC12040169 (PLOS Biology, 2025):
Peptide text beside a SMILES is read from it. * marks the point of attachment. Hydrocinnamoyl = O=C(CCc1ccccc1)*

assay: in vitro; details: human, hela cells, % viability

Row | Structure (SMILES) | viability at 28.5 h, 10 µM
1 | CC(C)C[C@@H](C(=O)N1CCC(C(=O)O)CC1)n1c(=O)[nH]c2ccccc2c1=O [CBK286762] | 88.5%
2 | CC(=O)C1=C(O)C(=O)N(CCC(=O)O)C1c1ccccc1 (centres unmarked) [CBK286763] | 84.3%
3 | COc1ccccc1N1CCN(CC(CC(=O)Nc2ccccc2)C(=O)O)CC1 (centres unmarked) [CBK286766] | 88.6%
4 | O=C(Cc1c[nH]c2ccccc12)NC(Cc1ccccc1)C(=O)O (centres unmarked) [CBK286770] | 120%
5 | COc1cc2oc(=O)c(CC(=O)N[C@@H](CC(C)C)C(=O)O)c(C)c2cc1Cl [CBK286772] | 104%
6 | O=C(O)CCCCC/N=C1\CCc2ccccc2N1 [CBK286773] | 100%
7 | O=C(O)Cc1sc(Nc2ccccc2)nc1-c1ccccc1 [CBK286775] | 97.2%
8 | Cc1ccc(C(=O)O)cc1NC(=O)C(=O)NCC(c1ccccc1)N(C)C (centres unmarked) [CBK286777] | 96.3%
9 | CCOc1ccc(C(C)(CC(N)=O)C(=O)O)cc1 (centres unmarked) [CBK286778] | 97.9%
10 | CC(=O)Cc1c(C(=O)O)c(C)nn1-c1ccccc1 [CBK286779] | 104%
11 | O=C(O)CNC(=O)CCn1c(-c2ccccc2)cc2ccccc21 [CBK286780] | 99.2%
12 | CCn1cc(C(=O)N[C@H](C(=O)O)C(C)C)c(=O)c2cc3c(cc21)OCO3 [CBK286786] | 110%
13 | O=C(CC(CN1CCN(c2cccc(Cl)c2)CC1)C(=O)O)NCc1ccccc1 (centres unmarked) [CBK286787] | 100%
14 | COc1cccc(NC(=O)CC(CN2CCN(c3ccccc3)CC2)C(=O)O)c1 (centres unmarked) [CBK286789] | 90.7%
15 | CN1CCCN(CC(CC(=O)NCc2ccccc2)C(=O)O)CC1 (centres unmarked) [CBK286791] | 86.6%
16 | Cn1c(=O)c2c(nc(Nc3ccc(Cl)cc3Cl)n2CC(=O)O)n(C)c1=O [CBK286792] | 90.5%
17 | CC1CC(C)CN(C(=O)NCCCCCC(=O)O)C1 (centres unmarked) [CBK286793] | 89%
18 | O=C(COc1ccc(Br)cc1C(=O)O)NCCc1ccccc1 [CBK286796] | 95.3%
19 | COc1cccc(-c2nc(CC(=O)N3CCC(C(=O)O)CC3)cs2)c1 [CBK286797] | 92.3%
20 | O=C(O)C1CCN(C(=O)CCC2CCCCC2)CC1 [CBK286804] | 89.3%
21 | O=C(O)c1c2c(nc3ccccc13)CCN(Cc1ccccc1)C2 [CBK286805] | 87.4%
22 | Cc1cc(C)n(C(CC(=O)N2CCCCC2)C(=O)O)n1 (centres unmarked) [CBK286806] | 85.6%
23 | CCn1cc(NCc2ccccc2Cl)c(C(=O)O)n1 [CBK286807] | 95.2%

Row | Structure (SMILES) | viability at 28.5 h, 10 µM
24 | O=C(O)CC(C(=O)Nc1ccccc1)C1CCCO1 (centres unmarked) [CBK286809] | 93%
25 | Cc1nc(OCC(=O)O)c(C#N)c2c1COC(C)(C)C2 [CBK286810] | 89.4%
26 | O=C(CC(CN1CCN(Cc2cccc(Cl)c2)CC1)C(=O)O)Nc1cccc(O)c1 (centres unmarked) [CBK286811] | 88.9%
27 | O=C(O)C1CCCN(C(=O)Cn2ccc3ccc(OCc4ccccc4)cc32)C1 (centres unmarked) [CBK286814] | 89.6%
28 | Cc1nc2n(c(=O)c1CCSc1ccccc1C(=O)O)CCCC2 [CBK286818] | 102%
29 | C[C@@H]1C[C@H](Nc2ccccc2)c2ccccc2N1C(=O)CCC(=O)O [CBK286820] | 95.8%
30 | COc1ccccc1N1CCN(CC(CC(=O)Nc2ccc3c(c2)OCO3)C(=O)O)CC1 (centres unmarked) [CBK286822] | 95%
31 | O=C(O)c1ccccc1NC(=O)N1CCc2[nH]cnc2C1c1cccc(F)c1 (centres unmarked) [CBK286824] | 93.7%
32 | O=C(O)c1nccnc1C(=O)N1CCN(c2ccc(Cl)cc2)CC1 [CBK286826] | 89.4%
33 | O=C(O)CC1NC(=O)C(Cc2ccccc2)NC1=O (centres unmarked) [CBK286827] | 98.1%
34 | O=C(O)C1=CC(c2ccccc2)=NS(=O)(=O)N1 [CBK286828] | 108%
35 | Cc1cc(=O)oc2cc(OC(C)C(=O)NCC(=O)O)ccc12 (centres unmarked) [CBK286829] | 106%
36 | CC1(C)C(C(=O)O)C1C(=O)NCCc1ccc(O)cc1 (centres unmarked) [CBK286832] | 104%
37 | O=C(CC(CN1CCN(CCN2CCCC2)CC1)C(=O)O)Nc1ccccc1 (centres unmarked) [CBK286833] | 109%
38 | C=C(C)CN1CCN(C(C(=O)O)c2c[nH]c3cc(F)ccc23)CC1 (centres unmarked) [CBK286835] | 106%
39 | N#CC(CC(=O)O)C(Cc1ccccc1)c1ccccc1 (centres unmarked) [CBK286837] | 107%
40 | O=C(O)CC(Cc1ccccc1)C(=O)Nc1ccc(F)cc1 (centres unmarked) [CBK286841] | 96.1%
41 | COc1cccc(NC(=O)CC(CN2CCC(O)CC2)C(=O)O)c1 (centres unmarked) [CBK286842] | 93%
42 | O=C(O)C1C2CCC(O2)C1C(=O)Nc1cnn(Cc2ccccc2)c1 (centres unmarked) [CBK286849] | 96%
43 | CC1=CC(C)C(C(=O)O)C(C(=O)Nc2ccccc2)C1 (centres unmarked) [CBK286851] | 90.4%
44 | O=C(CC1(C(=O)O)CCCC1)NC1CCS(=O)(=O)C1 (centres unmarked) [CBK286855] | 92.3%
45 | O=C(O)CCC(=O)N1c2ccccc2CC1c1ccccc1 (centres unmarked) [CBK286860] | 91.1%
46 | Cc1ccc2nc(SCCC(=O)O)cc(C)c2c1 [CBK286861] | 90.1%

Row | Structure (SMILES) | viability at 28.5 h, 10 µM
47 | Cc1ccc(C(=O)O)cc1NC(=O)C(=O)NCC(c1ccccc1)N1CCN(C)CC1 (centres unmarked) [CBK286864] | 92.4%
48 | O=C(CC(CN1CCN(Cc2ccccn2)CC1)C(=O)O)NCc1ccccc1 (centres unmarked) [CBK286865] | 81.2%
49 | O=C(O)CC1(CNC(=O)Cn2nc(-c3ccccc3)ccc2=O)CCCCC1 [CBK286866] | 84.1%
50 | CCn1ncc(CN2CCN(C(=O)c3nn(C)cc3C(=O)O)CC2)c1C [CBK286870] | 89.3%
51 | Cn1c(C(=O)O)cc2cc(Oc3ccccc3)ccc21 [CBK286873] | 86.3%
52 | O=C(O)CNC(=O)CNC(=O)CCc1ccccc1 [CBK286874] (Hydrocinnamoyl-Gly-Gly-OH) | 87.1%
53 | Cc1nn(-c2ccccc2)c(C)c1CNC(=O)C1C2C=CC(C2)C1C(=O)O (centres unmarked) [CBK286877] | 90.4%
54 | Cc1nn(C)c(C)c1CN(C)C(=O)CCCC(=O)O [CBK286879] | 82.8%
55 | O=C(O)CCn1c(=O)cc(C(F)F)c2cn(Cc3ccccc3)nc21 [CBK286881] | 91.3%
56 | O=C(O)COCc1cc(-c2ccc3c(c2)OCO3)on1 [CBK286883] | 110%
57 | CCn1nc(C)c(CN(C)C(=O)C2CC=CCC2C(=O)O)c1C (centres unmarked) [CBK286884] | 86.1%
58 | O=C(O)CCc1nc2nc(-c3ccco3)cc(C(F)(F)F)n2n1 [CBK286889] | 86%
59 | CC1Cc2ccccc2N1C(=O)C1C2C=CC(O2)C1C(=O)O (centres unmarked) [CBK286891] | 86.9%
60 | O=C(O)c1ccc(CSc2nc3ccccc3[nH]2)cc1 [CBK286892] | 82%
61 | CCC1CC(C(F)(F)F)n2ncc(C(=O)O)c2N1 (centres unmarked) [CBK286893] | 85.2%
62 | O=C(O)CNC(=O)c1ccccc1NC(=O)c1ccco1 [CBK286894] | 90.2%
63 | O=C(O)C1CCN(C(=O)CCC(=O)N2CCN(c3ccccc3)CC2)CC1 [CBK286896] | 93.9%
64 | CC(C)CN1C(=O)c2ccc(C(=O)NCc3ccc(C(=O)O)cc3)cc2C1=O [CBK286898] | 116%
65 | CC1CN(CCC(=O)O)Cc2cc(Cl)ccc2O1 (centres unmarked) [CBK286899] | 103%
66 | O=C(O)/C=C/c1ccccc1OCC(=O)NC1CCCCC1 [CBK286900] | 99.8%
67 | O=C(O)C1CC(=O)N(c2cccc3ccccc23)C1 (centres unmarked) [CBK286902] | 88.8%
68 | O=C(O)C1CCCCC1C(=O)NCCCN1CCOCC1 (centres unmarked) [CBK286903] | 83.4%
69 | O=C(O)C1=CC(c2c[nH]nc2-c2ccc(F)cc2)n2ncnc2N1 (centres unmarked) [CBK286906] | 86.2%

Row | Structure (SMILES) | viability at 28.5 h, 10 µM
70 | COc1ccc(Cl)cc1/C=C/C(=O)NCc1ccc(C(=O)O)cc1 [CBK286908] | 89.3%
71 | O=C(O)CC(NCc1ccco1)C(=O)Nc1cccc(F)c1 (centres unmarked) [CBK286910] | 97%
72 | O=C(O)COc1cccc(NS(=O)(=O)c2ccc(Br)cc2)c1 [CBK286911] | 111%
73 | NC(CC(=O)O)c1ccc(F)c(Oc2ccccc2)c1 (centres unmarked) [CBK286912] | 101%
74 | O=C(O)C1CCCCC1C(=O)NCCCN1CCCC1=O (centres unmarked) [CBK286914] | 83.1%
75 | CN1CCN(NC(=O)C2C3C=CC(C3)C2C(=O)O)CC1 (centres unmarked) [CBK286915] | 90.1%
76 | O=C(O)CCNS(=O)(=O)c1ccc2ccccc2c1 [CBK286920] | 98.6%
77 | O=C(O)[C@@H]1CSC(c2ccc(C(F)(F)F)cc2)N1 (some centres unmarked) [CBK286921] | 87.7%
78 | O=C(O)CCc1nnc(S)n1Cc1ccccc1 [CBK286926] | 93.8%
79 | Cc1ccc(C2SCC(C(=O)O)N2C(=O)c2cccc(Cl)c2)cc1 (centres unmarked) [CBK286931] | 93.3%
80 | O=C(O)c1cccn1-c1cc(Cl)cc(Cl)c1 [CBK286932] | 98.8%
81 | O=C1CC(/C=C/c2ccccc2)Cc2[nH]c(=O)c(C(=O)O)cc21 (centres unmarked) [CBK286933] | 92.9%
82 | CSc1ccc([C@H]2[C@H](C(=O)O)CC(=O)N2Cc2ccccc2)cc1 [CBK286934] | 91.7%
83 | Cc1ccc(S(=O)(=O)N2CCN(C(=O)C3CCCCC3C(=O)O)CC2)cc1C (centres unmarked) [CBK286936] | 97%
84 | O=C(O)C1C2C=CC3(CN(C/C=C/c4ccccc4)C(=O)C13)O2 (centres unmarked) [CBK286946] | 119%
85 | O=C(O)CCC(=O)Nc1nc(-c2ccccc2)cs1 [CBK286947] | 109%
86 | Cc1nn(Cc2cccc(C(=O)O)c2)c(C)c1Br [CBK286950] | 100%
87 | CCS(=O)(=O)c1ccc2cc(C(=O)O)[nH]c2c1 [CBK286951] | 101%
88 | O=C(O)CN1C(=O)C2CCC(c3ccccc3)CC2C1=O (centres unmarked) [CBK286952] | 95.7%
89 | CC1(C(=O)O)CCC(C(=O)Nc2ccc(F)cc2)C1(C)C (centres unmarked) [CBK286953] | 98.8%
90 | COc1ccc2nc(C)c(CCC(=O)O)c(O)c2c1 [CBK286955] | 98.8%
91 | O=C(O)CCC(=O)Nc1ccc(Oc2ccccc2)cc1 [CBK286957] | 88.9%

same assay, conditions: human, hela cells, % viability, bulk resorufin, single well

Row | Structure (SMILES) | viability at 28.5 h, 10 µM
92 | CC(C)=C1C2CCC1C(C(=O)N1CCC3(CC1)OCCO3)C2C(=O)O (centres unmarked) [CBK286937] | 92.7%
